Data on 35 substances can be found in patent US10556936B2, “Immunogenic proteins and fragments thereof from allergenic mites” (ALK-ABELLÓ A/S, priority 2016, dated 2020).

This experiment concerns HDM-specific T cells expanded from PBMCs of HDM-allergic individuals. Kind of experiment: T cell reactivity of peptides: IFN/IL-5 ELISPOT on in vitro expanded HDM-specific T cells. The format is cell-based, human. Conditions: for SFC/donor: individual peptides 10 μg/mL; for % responder: percentage of donors that produced a response against the peptide, 10 μg/mL. As to the method: Each sequence of an “L” cluster was aligned separately using the MEGA software tool with ClustalW. Fifteen-mer peptides overlapping by 10 amino acids were generated and the last 15-mer peptide was added when the sequence length was not divisible by 5, 14,783 unique peptides remained.
HLA class II binding predictions optimized for global coverage were performed for the seven class II alleles (HLA-DRB1*03:01, HLA-DRB1*07:01, HLA-DRB1*15:01, HLA-DRB3*01:01, HLA-DRB3*02:02, HLA-DRB4*01:01 and HLA-DRB5*01:01) using the standalone version of the IEDB class II binding prediction tool. The median consensus percentile rank was estimated from the consensus percentile ranks for the seven alleles. Further, peptides with more than ten overlapping amino acids, which appeared because several occurrences of some sequence regions were repeated multiple times in the same sequence, were eliminated (e.g. “[…]” was repeated seven times in one sequence.) Variant peptides were also removed, retaining the better peptide based on the median consensus percentile rank and conservation among the sequences within its respective cluster. Peptides with median consensus percentile rank ≤10.0 and conserved in ≥35% of sequences in the same cluster were finally selected, also including additional selected peptides chosen to maximize DRB1 allele coverage, for a grand total of 2,589 peptides.
Peptides were purchased from Mimotopes (Clayton, Victoria, Australia) or A and A (San Diego, Calif.) as crude material on a small (1-mg) scale. Individual peptides were resuspended in DMSO at a final concentration of 40 mg/mL. Peptide “megapools” of 30-65 peptides/pool were generated. Following lyophilization, each pool was reconstituted in DMSO so that each peptide was present at a concentration of 4 mg/mL. To facilitate deconvolution of positive megapools, each megapool was further broken down in 2-6 “mesopools” (259 mesopools in total), each containing 8-14 peptides. Each mesopool was then deconvoluted to identify individual positive peptides. To avoid dimerization and polymerization of peptides by intra- and intermolecular disulfide bond formation between cysteine residues, this amino acid were in some instances substituted by a serine residue in the peptides. Such peptides are herein marked with an asterisk (*).
PBMCs from European HDM-allergic individuals were recruited in the Copenhagen region (defined by clinical history of allergy to house dust mite and specific IgE to group 1 and group 2 major allergens from Der p and/or Der f and with measured specific IgE (CAP) >0.7 kU/L towards Der p/f 1 or Der p/f 2. In addition, PBMCs from 10 US HDM-allergic individuals were recruited in San Diego (defined by Der p extract IgE titers greater than 0.35 kUA/L). PBMCs were isolated from whole blood by density gradient centrifugation according to manufacturers' instructions (Ficoll-Hypaque, Amersham Biosciences, Uppsala, Sweden). Der p- and Der f-specific extract IgE titers were determined using the ImmunoCAP system (Thermo Fisher, Uppsala, Sweden). In a separate series of experiments, pooled plasma from 10 European and 10 American HDM atopic individuals from the San Diego region, respectively, was utilized to run 2D immunoblots to elucidate IgE and IgG reactivity towards the proteins, which had at least one peptide with positive T cell response.
HDM-specific T cells were expanded in vitro. Briefly, PBMCs from HDM-allergic individuals were stimulated with HDM extract (5 μg/mL) and expanded over 14-17 days with IL-2 (added every 3 days). Cells were harvested on day 14, restimulated with HDM extract (5 μg/mL), individual peptides (10 μg/mL) or peptide pools (5 μg/mL) and screened for […]/IL-5-production by ELISPOT. Criteria for positivity were 100 or 20 spot forming cells (SFCs) per 10^6 PBMCs for peptide pools or single peptides, respectively, p<0.05, and a stimulation index >2.

As for “83 (DLSMTKLKRVRPSGF; Immunogenic fragment) [compound 83]”, the SFC/donor came to 4 SFC/donor and the “% responder” value amounted to 5%.
The like results for “96 (LPDFIRNVLHKNGQK; Immunogenic fragment) [compound 96]” were, in that order, 5 SFC/donor and 10%.
For “101 (RHYNDQLHYNLHNLY; Immunogenic fragment) [compound 101]”, the SFC/donor is reported as 10 SFC/donor and the “% responder” value was 5%.
Turning to “128 (YQTNQSIIILEILGI; Immunogenic fragment) [compound 128]”, the SFC/donor was determined as 10 SFC/donor and the “% responder” value is recorded as 10%.
Taken in the same sequence, the figures for “SLRGVTIRNAPFLEE (Immunogenic fragment) [Peptide 178, fragment of A0023 Der f]” were 42 SFC/donor and 10%.
Regarding “151 (FVYAKLRGAFSESTA; Immunogenic fragment) [compound 151]”, the SFC/donor is 9 SFC/donor and the “% responder” value was 5%.
As to “147 (LGMQICFDMIFKTPG; Immunogenic fragment) [compound 147]”, the SFC/donor is given as 28 SFC/donor and the “% responder” value is given as 20%.
The like results for “EARENYITFTEPFMI (Immunogenic fragment) [Peptide 179, fragment of A0023 Der f/p]” were, in that order, 5 SFC/donor and 5%.
Taken in the same sequence, the figures for “132 (GKPYYQFIYTTNNML; Immunogenic fragment) [compound 132]” were 44 SFC/donor and 15%.
The like results for “53 (FEAKGFKLVAMKFMM; Immunogenic fragment) [compound 53]” were, in that order, 7 SFC/donor and 5%.
Consider “89 (RAPFRKNTNWKRYTQ; Immunogenic fragment) [compound 89]”, for which the SFC/donor is given as 9 SFC/donor and the “% responder” value is 5%.
For “84 (IHQLNDQVLRLKFID; Immunogenic fragment) [compound 84]”, the SFC/donor stood at 3 SFC/donor and the “% responder” value came out at 5%.
The like results for “105 (SLSMAMATNAALTKL; Immunogenic fragment) [compound 105]” were, in that order, 9 SFC/donor and 5%.
Taken in the same sequence, the figures for “DWRNLYPRKYAFALP (Immunogenic fragment) [Peptide 186, fragment of A0023 Der f]” were 64 SFC/donor and 5%.
The like results for “112 (PSILNFNLFGVPMIG; Immunogenic fragment) [compound 112]” were, in that order, 4 SFC/donor and 5%.
Take “67 (LMVHRRLLHDDYFGV; Immunogenic fragment) [compound 67]”: the SFC/donor was 2 SFC/donor and the “% responder” value is on record as 5%.
Taken in the same sequence, the figures for “64 (LYNPLGHRLINHTVR; Immunogenic fragment) [compound 64]” were 6 SFC/donor and 5%.
The like results for “133 (QFIYTTNNMLIIQTK; Immunogenic fragment) [compound 133]” were, in that order, 47 SFC/donor and 5%.
Consider “111 (SSMRWTIPSILNFNM; Immunogenic fragment) [compound 111]”, for which the SFC/donor came out at 19 SFC/donor and the “% responder” value is 10%.
Taken in the same sequence, the figures for “78 (ELTLGANQPISSLKN; Immunogenic fragment) [compound 78]” were 6 SFC/donor and 5%.
The like results for “50 (FIMLKPDAVQRGIVG; Immunogenic fragment) [compound 50]” were, in that order, 7 SFC/donor and 5%.
The like results for “136 (DKSKKIHYQFEWKFN; Immunogenic fragment) [compound 136]” were, in that order, 2 SFC/donor and 5%.
With “49 (KGIIPGIKVDTGVVT; Immunogenic fragment) [compound 49]”, the SFC/donor came to 83 SFC/donor and the “% responder” value was determined as 10%.
With “135 (IIQTKLSIFNDNDKS; Immunogenic fragment) [compound 135]”, the SFC/donor is 3 SFC/donor and the “% responder” value stood at 5%.
The like results for “87 (QSIFDINLAYMVYSD; Immunogenic fragment) [compound 87]” were, in that order, 69 SFC/donor and 20%.
The like results for “81 (DDGNLISRALPHLGV; Immunogenic fragment) [compound 81]” were, in that order, 8 SFC/donor and 5%.
In the case of “69 (EPIISFTSIESNKQA; Immunogenic fragment) [compound 69]”, the SFC/donor is on record as 112 SFC/donor and the “% responder” value came out at 5%.
As for “88 (MVYSDQLIHVTSRLP; Immunogenic fragment) [compound 88]”, the SFC/donor came to 3 SFC/donor and the “% responder” value worked out at 5%.
The like results for “122 (FMWGDSMLIAPILYP; Immunogenic fragment) [compound 122]” were, in that order, 2 SFC/donor and 5%.
The like results for “59 (GTEKQHVAFNYAKML; Immunogenic fragment) [compound 59]” were, in that order, 80 SFC/donor and 5%.
The like results for “KDSQYLQHFNNAIKQ (Immunogenic fragment) [Peptide 188, fragment of A0023 Der f]” were, in that order, 24 SFC/donor and 10%.
“72 (KRYLLRLEHFYQSNE; Immunogenic fragment) [compound 72]”: the SFC/donor turned out to be 4 SFC/donor and the “% responder” value worked out at 5%.
The like results for “149 (SSSQYQMAWAFGNNV; Immunogenic fragment) [compound 149]” were, in that order, 12 SFC/donor and 10%.
Turning to “141 (KHEIFVVADLIDRKS; Immunogenic fragment) [compound 141]”, the SFC/donor was 7 SFC/donor and the “% responder” value came to 5%.
Taken in the same sequence, the figures for “97 (NATEYWMDMFAEYHK; Immunogenic fragment) [compound 97]” were 227 SFC/donor and 25%.
